Measured values reported in US20170158697A1, “Protein Kinase Inhibitors” (Pharmascience Inc., priority 2013, published 2017).

Legend:
[1] = biological target: T1, histidine tagged recombinant human full-length Bruton Agammaglobulinemia Tyrosine Kinase (Btk) (Homo sapiens, UniProt Q06187); assay: Btk kinase inhibition assay, Method A (fluorescence polarization, KinEASE FP Fluorescein Green); format: biochemical; details: 10 μM ATP, 250 μM substrate, 60 minutes, Ki by Cheng-Prusoff from IC50, read-out: Inhibition of Btk, EC50 (nM) (legend: Ki)
T1 construct: histidine tagged recombinant human full-length Bruton Agammaglobulinemia Tyrosine Kinase (Btk); His tag
T1 sequence (Q06187 whole entry): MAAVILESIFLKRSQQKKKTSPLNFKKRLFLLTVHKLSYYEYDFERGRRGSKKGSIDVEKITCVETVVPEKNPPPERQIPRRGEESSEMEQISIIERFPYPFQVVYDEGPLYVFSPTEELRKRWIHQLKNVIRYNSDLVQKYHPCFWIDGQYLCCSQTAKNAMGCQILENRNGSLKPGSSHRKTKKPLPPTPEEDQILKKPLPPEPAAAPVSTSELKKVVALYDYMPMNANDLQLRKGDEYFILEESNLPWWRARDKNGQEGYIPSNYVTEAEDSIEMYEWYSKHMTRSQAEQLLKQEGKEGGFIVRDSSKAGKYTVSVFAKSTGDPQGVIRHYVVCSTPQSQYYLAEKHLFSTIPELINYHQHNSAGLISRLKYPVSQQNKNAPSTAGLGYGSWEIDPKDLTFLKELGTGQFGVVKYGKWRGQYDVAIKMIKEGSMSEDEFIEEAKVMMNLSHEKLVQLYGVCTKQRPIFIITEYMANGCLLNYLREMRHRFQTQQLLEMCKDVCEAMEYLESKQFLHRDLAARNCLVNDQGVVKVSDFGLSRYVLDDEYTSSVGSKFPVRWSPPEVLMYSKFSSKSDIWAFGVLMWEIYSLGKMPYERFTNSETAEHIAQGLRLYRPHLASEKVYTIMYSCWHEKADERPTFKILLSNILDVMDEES
Procedure: Fluorescence polarization-based kinase assays were performed in 384 well-plate format using histidine tagged recombinant human full-length Bruton Agammaglobulinemia Tyrosine Kinase (Btk) and a modified protocol of the KinEASE™ FP Fluorescein Green Assay supplied from Millipore®. Kinase reaction were performed at room temperature for 60 minutes in presence of 250 μM substrate, 10 μM ATP and variable test article concentrations. The reaction was stopped with EDTA/kinease detection reagents. Phosphorylation of the substrate peptide was detected by fluorescence polarization measured with a Tecan 500 instrument. From the dose-response curve obtained, the IC50 was calculated using Graph Pad Prisms® using a non linear fit curve. The Km for ATP on each enzyme was experimentally determined and the Ki values calculated using the Cheng-Prusoff equation (see: Cheng Y, Prusoff W. H. (1973) Relationship between the inhibition constant (K1) and the concentration of inhibitor which causes 50% inhibition (I50) of an enzymatic reaction”. Biochem Pharmacol 22 (23): 3099-108). ki values are reported in Tables 2a and 2b: […]

[2] = system: splenocytes from CD1 mice; assay: Splenic cell proliferation assay (anti-IgM stimulated, Cell Titer-Glo); format: cell-based; details: Splenocyte; mouse splenocytes, 2.5 ug/ml anti-IgM F(ab')2 for 72 h; read-out: Inhibition of splenic cell proliferation, EC50
Procedure: Splenic Cell Proliferation Assay
Proliferation of splenocytes in response to anti-IgM can be blocked by inhibition of Btk. Splenocytes were obtained from 6 week old male CD1 mice (Charles River Laboratories Inc.). Mouse spleens were manually disrupted in PBS and filtered using a 70 um cell strainer followed by ammonium chloride red blood cell lysis. Cells were washed, resuspended in Splenocyte Medium (HyClone RPMI supplemented with 10% heat-inactivated FBS, 0.5× non-essential amino acids, 10 mM HEPES, 50 uM beta mercaptoethanol) and incubated at 37° C., 5% CO2 for 2 h to remove adherent cells. Suspension cells were seeded in 96 well plates at 50,000 cells per well and incubated at 37° C., 5% CO2 for 1 h. Splenocytes were pre-treated in triplicate with 10,000 nM curves of Formula I compounds for 1 h, followed by stimulation of cell proliferation with 2.5 ug/ml anti-IgM F(ab′)2 (Jackson ImmunoResearch) for 72 h. Cell proliferation was measured by Cell Titer-Glo Luminescent Assay (Promega). EC50 values (50% proliferation in the presence of compound as compared to vehicle treated controls) were calculated from dose response compound curves using GraphPad Prism Software.

human BTK kinase (hBTK) = biological target: T2, human BTK kinase (hBTK) (Homo sapiens, UniProt Q06187); assay: Btk kinase inhibition assay, Method B (KinaseProfiler radiometric protein kinase assay, Eurofins); format: biochemical; details: 40 minutes, 250 μM substrate
T2 construct: purchased Eurofins Pharma Discovery Services UK Limited (assay service)
T2 sequence (Q06187 whole entry): as above
Procedure: In vitro potency of selected compound was defined against human BTK kinase (hBTK) using KinaseProfiler radiometric protein kinase assays performed at Eurofins Pharma Discovery Services UK Limited.
hBTK kinase is diluted in buffer and all compounds were prepared to 50× final assay concentration in 100% DMSO. This working stock of the compound was added to the assay well as the first component in the reaction, followed by the remaining components as detailed in the assay protocol listed above. The reaction was initiated by the addition of the MgATP mix. The kinase reaction was performed at room temperature for 40 minutes in presence of 250 μM substrate, 10 mM MgAcetate, [γ-33P-ATP] (specific activity approx. 500 cpm/pmol, concentration as required) and variable test article concentrations. The ATP concentrations in the assays were with 15 μM of the apparent. The reaction was stopped by the addition of 3% phosphoric acid solution. 10 μL of the reaction is then spotted onto a P30 filtermat and washed three times for 5 minutes in 75 mM phosphoric acid and once in methanol prior to drying and scintillation counting. In addition positive control wells contain all components of the reaction, except the compound of interest; however, DMSO (at a final concentration of 2%) were included in these wells to control for solvent effects as well as blank wells contain all components of the reaction, with a reference inhibitor replacing the compound of interest. This abolishes kinase activity and establishes the base-line (0% kinase activity remaining). The potency of each compound was reported by estimating the EC50.

Ki [1]	EC50 (human BTK kinase (hBTK))	Compound	EC50 [2]
< 100 nM	–	Cc1ncc(COc2cc(F)cc(Oc3ccc(-c4cn(C[C@@H]5CCCN5)c5ncnc(N)c45)cc3)c2)cn1 [Compound 8]	100 to 1000 nM
< 100 nM	–	Cc1ncc(COc2cc(F)cc(Oc3ccc(-c4cn(C(C)C)c5ncnc(N)c45)cc3)c2)cn1 [Compound 3]	< 100 nM
< 100 nM	–	CC(C)n1cc(-c2ccc(Oc3cc(F)cc(OCc4cnc(C5CC5)nc4)c3)cc2)c2c(N)ncnc21 [Compound 14]	100 to 1000 nM
–	< 100 nM	CC(=O)N1CCC[C@@H](n2cc(-c3ccc(Oc4cc(F)cc(OCc5cnc(C)nc5)c4)cc3)c3c(N)ncnc32)C1 [Compound 25]	< 100 nM
< 100 nM	–	Cc1ncc(COc2cc(F)cc(Oc3ccc(-c4cn([C@H]5C[C@@](C)(O)C5)c5ncnc(N)c45)cc3)c2)cn1 [Compound 18]	< 100 nM
< 100 nM	–	Cc1ncc(COc2cc(F)cc(Oc3ccc(-c4cn(C[C@@H]5CCCN5)c5ncnc(N)c45)cc3)c2)s1 [Compound 7]	100 to 1000 nM
–	< 100 nM	CC(=O)N1CCC[C@@H]1Cn1cc(-c2ccc(Oc3cc(F)cc(OCc4cnc(C)nc4)c3)cc2)c2c(N)ncnc21 [Compound 22]	100 to 1000 nM
–	< 100 nM	Cc1ncc(COc2cccc(Oc3ccc(-c4cn(C(C)C)c5ncnc(N)c45)cc3)c2F)cn1 [Compound 19]	< 100 nM
< 100 nM	–	CC(C)n1cc(-c2ccc(Oc3cc(F)cc(OCc4ccccc4)c3)cc2)c2c(N)ncnc21 [Compound 9]	100 to 1000 nM
< 100 nM	–	CC(C)c1ncc(COc2cc(F)cc(Oc3ccc(-c4cn(C(C)C)c5ncnc(N)c45)cc3)c2)cn1 [Compound 13]	100 to 1000 nM
< 100 nM	–	Cc1ncc(COc2cc(F)cc(Oc3ccc(-c4cn(C5CCOCC5)c5ncnc(N)c45)cc3)c2)cn1 [Compound 6]	< 100 nM
100 to 1000 nM	–	Cc1ncc(COc2cc(Oc3ccc(-c4cn(C(C)C)c5ncnc(N)c45)cc3)ccc2F)cn1 [Compound 15]	100 to 1000 nM
–	< 100 nM	CC(C)n1cc(-c2ccc(Oc3cc(F)cc(OCc4ccc(CO)nc4)c3)cc2)c2c(N)ncnc21 [Compound 21]	< 100 nM
–	< 100 nM	CC(C)n1cc(-c2ccc(Oc3cc(F)cc(OCc4cnc(CO)nc4)c3)cc2)c2c(N)ncnc21 [Compound 20]	100 to 1000 nM
100 to 1000 nM	–	Cc1ncc(COc2cc(F)cc(Oc3ccc(-c4cn(C[C@H]5CCCN5)c5ncnc(N)c45)cc3)c2)cn1 [Compound 10]	100 to 1000 nM
–	< 100 nM	Cc1ncc(COc2cc(F)cc(Oc3ccc(-c4cn([C@H]5C[C@@H](O)C5)c5ncnc(N)c45)cc3)c2)cn1 [Compound 26]	< 100 nM
< 100 nM	–	Cc1ncc(COc2cc(F)cc(Oc3ccc(-c4cn([C@H]5C[C@@H](N6CCOCC6)C5)c5ncnc(N)c45)cc3)c2)cn1 [Compound 23]	< 100 nM
–	100 to 1000 nM	Cc1ncc(COc2cc(F)cc(Oc3ccc(-c4cn(C(C)(C)CO)c5ncnc(N)c45)cc3)c2)cn1 [Compound 24]	< 100 nM
< 100 nM	–	CC(C)n1cc(-c2ccc(Oc3cc(F)cc(OCc4cncnc4)c3)cc2)c2c(N)ncnc21 [Compound 17]	< 100 nM
< 100 nM	–	Cc1ncc(COc2ccc(F)c(Oc3ccc(-c4cn(C(C)C)c5ncnc(N)c45)cc3)c2)cn1 [Compound 11]	100 to 1000 nM
< 100 nM	–	Cc1ncc(COc2cc(F)cc(Oc3ccc(-c4cn(C5CCOCC5)c5ncnc(N)c45)cc3)c2)s1 [Compound 5]	< 100 nM
< 100 nM	–	Cc1ccc(COc2cc(F)cc(Oc3ccc(-c4cn(C(C)C)c5ncnc(N)c45)cc3)c2)cn1 [Compound 2]	< 100 nM
< 100 nM	–	Cc1ccc(COc2cc(F)cc(Oc3ccc(-c4cn(C5CCOCC5)c5ncnc(N)c45)cc3)c2)cn1 [Compound 4]	< 100 nM
< 100 nM	–	CCCc1ncc(COc2cc(F)cc(Oc3ccc(-c4cn(C(C)C)c5ncnc(N)c45)cc3)c2)cn1 [Compound 12]	100 to 1000 nM
< 100 nM	–	Cc1ncc(COc2cc(F)cc(Oc3ccc(-c4cn(C(C)C)c5ncnc(N)c45)cc3)c2)s1 [Compound 1]	< 100 nM
